In patent US20250073248A1, “BIORESORBABLE CATIONIC STEROIDAL ANTIMICROBIAL COMPOUNDS WITH GLYCERIDE LINKAGES” (BRIGHAM YOUNG UNIVERSITY, priority 2023, published 2025):
Values after ≈ are worked out from the molar mass of the structure shown.

Test system: Candida albicans (CA)
Experiment: MIC and MFC, broth microdilution, CA (Table 1)
Type: cell-based
Settings: Candida albicans
Source text: To investigate the antimicrobial impact of structural variance in the novel bioresorbable CSA compounds disclosed herein,Pseudomonas aeruginosa 01 (PA01), methicillin-resistant Staphylococcus aureus (MRSA), and Candida albicans (CA) were selected, representing Gram-negative bacterial, Gram-positive bacterial, and fungal pathogens of high or critical priority on the world health organization's priority lists for bacteria and fungi. Earlier applications of CSA compounds have focused on preventing medical device infections, and all three strains are commonly found in colonized implants, making efficacy against these pathogens an important indicator of future applicability.
All compounds were screened against these pathogens to determine their minimum inhibitory concentration (MIC), minimum bactericidal concentration (MBC), and minimum fungicidal concentration (MFC) using a broth microdilution method. […] Of these three, only CSA-4110 was similarly active against PA01and CA, inhibiting growth at 8 μg/mL.

CCCCCCCCCC(=O)OCC(O)COC(=O)CC[C@@H](C)[C@H]1CC[C@H]2[C@@H]3[C@H](OC(=O)CCN)C[C@@H]4C[C@H](OC(=O)CCN)CC[C@]4(C)[C@H]3C[C@H](OC(=O)CCN)[C@]12C (some centres unmarked) [CSA-4110]
MBC (MFC, value in parentheses): 16 µg/mL (≈ 18.8 µM)
MIC (first value of cell): 8 µg/mL (≈ 9.41 µM)
